# According to BindingDB's records for doi:10.1016/j.bmc.2021.116161 (University of Nantes, 2021):
# Assays:
# [1] = Inhibition of IL-15 in mouse 32Dbeta cells assessed as decrease in cell growth in presence of RLI incubated for 30 mins followed by RLI addition and measured after 2.5 days by alamar blue assay
# [2] = Inhibition of […] in mouse 32Dbeta cells assessed as decrease in cell growth in presence of IL2 incubated for 30 mins followed by IL2 addition and measured after 2.5 days by alamar blue assay
Structure (SMILES),IC50 [1],IC50 [2]
Cn1c(Cc2nn(C)c(=O)c3ccccc23)nnc1SCC(=O)Nc1ccc(Cl)cc1Cl,22.5 µM,21.1 µM
Cn1c(Cc2nn(C)c(=O)c3ccccc23)nnc1SCCCCCCCC(=O)Nc1ccc(Cl)cc1Cl,2.2 µM,3.9 µM
CCOC(CCn1c(Cc2nn(C)c(=O)c3ccccc23)nnc1SCC(=O)Nc1ccc(Cl)cc1Cl)OCC,> 30 µM,> 30 µM
Cn1nc(Cc2nnc(SCC(=O)Nc3ccc(Cl)cc3Cl)n2CCC=O)c2ccccc2c1=O,6 µM,6.4 µM
Cn1nc(Cc2nnc(SCC(=O)Nc3ccc(Cl)cc3Cl)n2CCCO)c2ccccc2c1=O,> 30 µM,> 30 µM
Cn1nc(Cc2nnc(SCC(=O)Nc3ccc(Cl)cc3Cl)n2CCC(=O)O)c2ccccc2c1=O,> 30 µM,> 30 µM
Cn1c(Cc2nn(CCC3OCCO3)c(=O)c3ccccc23)nnc1SCC(=O)Nc1ccc(Cl)cc1Cl,> 30 µM,> 30 µM
Cn1c(Cc2nn(CCC=O)c(=O)c3ccccc23)nnc1SCC(=O)Nc1ccc(Cl)cc1Cl,30 µM,30 µM
Cn1c(Cc2nn(CCCO)c(=O)c3ccccc23)nnc1SCC(=O)Nc1ccc(Cl)cc1Cl,> 30 µM,> 30 µM
Cn1c(Cc2nn(CCC(=O)O)c(=O)c3ccccc23)nnc1SCC(=O)Nc1ccc(Cl)cc1Cl,> 30 µM,> 30 µM
CN(C)CCCn1nc(Cc2nnc(SCC(=O)Nc3ccc(Cl)cc3Cl)n2C)c2ccccc2c1=O,18.8 µM,16.7 µM
CCOC(CCn1c(Cc2nn(C)c(=O)c3ccccc23)nnc1SCCCCCCCC(=O)Nc1ccc(Cl)cc1Cl)OCC,12.1 µM,16.4 µM
Cn1nc(Cc2nnc(SCCCCCCCC(=O)Nc3ccc(Cl)cc3Cl)n2CCC=O)c2ccccc2c1=O,2.5 µM,5.5 µM
Cn1nc(Cc2nnc(SCCCCCCCC(=O)Nc3ccc(Cl)cc3Cl)[nH]2)c2ccccc2c1=O,1.1 µM,3.5 µM
Cn1nc(Cc2nnc(SCCCCCCCC(=O)Nc3ccc(Cl)cc3Cl)n2CCCO[Si](C)(C)C(C)(C)C)c2ccccc2c1=O,> 30 µM,> 30 µM
Cn1nc(Cc2nnc(SCCCCCCCC(=O)Nc3ccc(Cl)cc3Cl)n2CCCO)c2ccccc2c1=O,> 30 µM,> 30 µM
Cn1nc(Cc2nnc(SCCCCCCCC(=O)Nc3ccc(Cl)cc3Cl)n2CCC(=O)O)c2ccccc2c1=O,> 30 µM,> 30 µM
CN(C)CCCn1c(Cc2nn(C)c(=O)c3ccccc23)nnc1SCCCCCCCC(=O)Nc1ccc(Cl)cc1Cl,3.7 µM,5.5 µM
Cn1c(Cc2nn(CCCO[Si](C)(C)C(C)(C)C)c(=O)c3ccccc23)nnc1SCCCCCCCC(=O)Nc1ccc(Cl)cc1Cl,> 30 µM,> 30 µM
Cn1c(Cc2nn(CCC=O)c(=O)c3ccccc23)nnc1SCCCCCCCC(=O)Nc1ccc(Cl)cc1Cl,8.9 µM,11.7 µM
Cn1c(Cc2nn(CCCO)c(=O)c3ccccc23)nnc1SCCCCCCCC(=O)Nc1ccc(Cl)cc1Cl,> 30 µM,> 30 µM
Cn1c(Cc2nn(CCC(=O)O)c(=O)c3ccccc23)nnc1SCCCCCCCC(=O)Nc1ccc(Cl)cc1Cl,> 30 µM,> 30 µM
CN(C)CCCn1nc(Cc2nnc(SCCCCCCCC(=O)Nc3ccc(Cl)cc3Cl)n2C)c2ccccc2c1=O,2.3 µM,3.2 µM
Cn1c(Cc2n[nH]c(=O)c3ccccc23)nnc1SCCCCCCCC(=O)Nc1ccc(Cl)cc1Cl,> 30 µM,> 30 µM
Cn1c(Cc2nn(C)c(=O)c3ccccc23)nnc1SCCCCCCCC(=O)Nc1ccc(C(=O)c2ccccc2)cc1,6.7 µM,20.6 µM
